Peptide text beside a SMILES is read from it.
Key:
siRNA = assay: Serum stability / protection of siRNA against enzymatic degradation in fetal bovine serum; assay type: in vitro ADME; conditions: 24 hours of exposure to serum, N/P ratio of 40, compared to siRNA exposed to saline
From the text: Serum Stability. In order to determine the capability of the complexes to protect the siRNA against enzymatic degradation, Inventors exposed different study groups to a diluted fetal bovine serum (FBS) solution, with “naked” siRNA as a positive control, and siRNA exposed to saline as a negative control according to the previously reported procedure (Mozaffari S, Bousoik E, Amirrad F, Lamboy R, Coyle M, Hall R, Alasmari A, Mahdipoor P, Parang K, Montazeri Aliabadi H. Amphiphilic Peptides for Efficient siRNA Delivery. Polymers (Basel). 2019; 11(4) doi: 10.3390/polym11040703. PubMed PMID: 30999603; PMCID: PMC6523661).
(§1) The binding affinity for [CR4W4C] […] The toxicity of the peptides was evaluated in triple-negative breast cancer (TNBC) cells MDA-MB-231 (as a model cancer cell line) with peptide alone and siRNA complexes, and CCK assay to quantify cell viability after 48 hours.
Protection of siRNA against Enzymatic Degradation. […] After the incubation, complexes were dissociated using a 2:3 mixture of heparin (5% solution in normal saline) and EDTA (0.5 mM), and the samples were analyzed using a 1% agarose gel (with 1 μg/mL ethidium bromide) at 70 V for 20 minutes. UV illumination (Gel-Doc system, Bio-Rad; Hercules, CA) was used to visualize the gel, and the intensity of the bands (representing remaining intact siRNA) was quantified by Image J software (FIG. 8).

MDA-MB-231 cells = assay: Cytotoxicity of peptides and peptide/siRNA complexes in MDA-MB-231 cells (MTT / CCK); assay type: cell-based, human; conditions: as compared to commercial agent lipofectamine
Experimental: as §1
The human breast cancer cell line MDA-MB-231 was purchased from American Type Culture Collection (ATCC; Manassas, VA). MDA-MB-231 was cultured in the DMEM medium. The media was supplemented with 10% (v/v) fetal bovine serum, 100 U/mL penicillin, and 100 μg/ml streptomycin. Cells were maintained in the normal condition of 37° C. and 5% CO2 under a humidified atmosphere and were sub-cultured when 80-100% confluent.
Toxicity of the Peptide/siRNA Complexes: The effect of peptides on the viability of human cell lines was evaluated by exposing the MDA-MB-231 cell lines (FIGS. 9-12) to different concentrations of peptide solution and exposing the cells to peptide/siRNA complexes prepared with different peptides at a various peptide:siRNA ratios according to the previously reported procedure by us (Mozaffari S, Bousoik E, Amirrad F, Lamboy R, Coyle M, Hall R, Alasmari A, Mahdipoor P, Parang K, Montazeri Aliabadi H. Amphiphilic Peptides for Efficient siRNA Delivery. Polymers (Basel). 2019; 11(4). doi: 10.3390/polym11040703. PubMed PMID: 30999603; PMCID: PMC6523661). […]

Row | protection of siRNA in the presence of serum (siRNA) | SMILES | toxicity (MDA-MB-231 cells)
1 | protect siRNA completely | N=C(N)NCCC[C@@H]1NC(=O)[C@H](CCCNC(=N)N)NC(=O)[C@H](CCCNC(=N)N)NC(=O)[C@H](CCCNC(=N)N)NC(=O)[C@H](CCCNC(=N)N)NC(=O)[C@@H](NC(=O)[C@H](Cc2c[nH]c3ccccc23)NC(=O)[C@H](Cc2c[nH]c3ccccc23)NC(=O)[C@H](Cc2c[nH]c3ccccc23)NC(=O)[C@@H](N)Cc2c[nH]c3ccccc23)CSSC[C@@H](C(=O)N[C@@H](Cc2c[nH]c3ccccc23)C(=O)N[C@@H](Cc2c[nH]c3ccccc23)C(=O)N[C@@H](Cc2c[nH]c3ccccc23)C(=O)N[C@@H](Cc2c[nH]c3ccccc23)C(=O)O)NC1=O [W4[CR5C]W4] (HELM PEPTIDE1{W.W.W.W.C.R.R.R.R.R.C.W.W.W.W}$PEPTIDE1,PEPTIDE1,5:R3-11:R3$$$V2.0; N-terminus and C-terminus assumed) | without toxicity
2 | protect siRNA completely | N=C(N)NCCC[C@@H]1NC(=O)[C@H](CCCNC(=N)N)NC(=O)[C@H](CCCNC(=N)N)NC(=O)[C@H](CCCNC(=N)N)NC(=O)[C@@H](N)CSSC[C@@H](C(=O)O)NC(=O)[C@H](Cc2c[nH]c3ccccc23)NC(=O)[C@H](Cc2c[nH]c3ccccc23)NC(=O)[C@H](Cc2c[nH]c3ccccc23)NC(=O)[C@H](Cc2c[nH]c3ccccc23)NC1=O [[CR4W4C]] (HELM PEPTIDE1{C.R.R.R.R.W.W.W.W.C}$PEPTIDE1,PEPTIDE1,1:R3-10:R3$$$V2.0; N-terminus and C-terminus assumed) | without toxicity
